Data on three compounds can be found in ChEMBL document CHEMBL1134152, “Biological activity in human neutrophils of di-tripeptides, analogues of the chemotactic fMLP” (Bioorg Med Chem Lett, 2001).

The nature of test [1]: Chemotactic index (C.I.) which is the ratio: (migration toward test attractant minus migration toward the buffer)/(migration toward the buffer). It counts as functional.
A short description of test [2]: Release of neutrophil granule enzymes was evaluated by determining lysozyme activity modified for microplate-based assays.

As to `COC(=O)[C@H](Cc1ccccc1)NC(=O)[C@H](CC(=O)N[C@@H](CCSC)C(=O)N[C@@H](CC(C)C)C(=O)N[C@@H](Cc1ccccc1)C(=O)O)NC(=O)[C@H](CCSC)NC=O`, in test [1], the Chemotactic index is 0.5. Moreover, in test [2], the Lysozyme release was 65%.

On to `COC(=O)[C@H](Cc1ccccc1)NC(=O)[C@H](CCCCNC(=O)N[C@@H](CCSC)C(=O)N[C@@H](CC(C)C)C(=O)N[C@@H](Cc1ccccc1)C(=O)O)NC(=O)[C@H](CCSC)NC=O`, for which the Chemotactic index in test [1] turned out to be 0.7. This compound displayed a Lysozyme release in test [2] of 70%.

Take `COC(=O)[C@H](Cc1ccccc1)NC(=O)[C@H](CC(C)C)NC(=O)[C@H](CCSC)NC=O`: the Chemotactic index in test [1] was determined as 1. The compound further yielded a Lysozyme release in test [2] of 60%.
